The values below come from patent US12043625B2, “Pyridine derivatives with c-linked cyclic substituents as cGAS inhibitors” (BOEHRINGER INGELHEIM INTERNATIONAL GMBH, priority 2021, dated 2024).

As a reminder, the IC50 is the concentration that inhibits the measured activity by half.

Assay [1] has as its system IFN induction in dsDNA-stimulated human whole blood. Nature of the assay: Human whole blood assay, dsDNA transfection, IFNα2a production (hWB IC50).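 Note: cGAS pathway activity, IFNα2a in plasma by MSD immunoassay after 22 h at 37 °C, 8 concentrations up to 10 µM in 0.1% DMSO, DMSO controls.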 It is filed as cell-based.
Protocol: For the detection of cellular cGAS activity human whole blood was stimulated by transfection with double stranded DNA. Pathway activity was monitored by measuring the IFNα2α production.
Typically, 8 concentrations were used with the highest concentration at 10 μM in the final assay volume followed by ˜1:5 dilution steps. DMSO concentration was set to 0.1% in the final assay volume. The 96-well assay plate contained 10 test compounds, and DMSO in control wells.
Whole blood was kept at room temperature for a maximum of 3 hours after collection until use in the assay.
160 μl of the whole blood samples was transferred to each well of the 96-well assay plates filled with compound/OptiMEM. All assay plates were prepared as duplicates with blood from different donors. Blood plates were kept at room temperature for 60 minutes and continuous shaking with 450 rpm, covered with the lid, but not sealed.
20 μl OptiMEM and 9.6:1 Fugene was added to all low control wells.
After covering assay plates with aera seals and the lid, blood plates were kept at room temperature for 30 minutes and continuous shaking with 450 rpm, followed by an overnight incubation of 22 h at 37° C. in the incubator, without shaking.
U-Plex MSD GOLD 96-well Small Spot Strepavidin SECTOR Plates (Meso Scale Diagnostics #L45SA-5) were coated with 25 μl diluted capture antibody. Coated plates were incubated for 60 min at room temperature under continuous shaking at 700 rpm. MSD IFNα-2a plates were washed three times with 150 μl wash buffer (1×HBSS, 0.05% Tween).
After blocking the plates with 100 μl block solution/well (1×HBSS with 0.2% Tween, 2% BSA) for 60 min at room temperature and continuous shaking at 700 rpm, plates were emptied as dry as possible by dumping just before continuing with the human plasma.
Whole Blood assay plates were centrifuged at 1600 rpm for 10 minutes. 25 μl of supernatant was transferred with a pipetting robot from each whole blood plate to the corresponding IFNα-2a plate.
Plates were sealed with microplate seals and kept at room temperature again under continuous shaking at 700 rpm for two hours.
Next MSD IFNα-2a plates were washed three times with 150 μl wash buffer (1×HBSS, 0.05% Tween), before adding 25 μl MSD SULFO-TAG IFNα-2a Antibody solution (1:100 diluted in Diluent 3 (Meso Scale Diagnostics #R50AP-2) to each well of the plates.
Afterwards plates were sealed with microplate seals and kept at room temperature again under continuous shaking at 700 rpm for two hours. Finally, MSD IFNα-2α plates were washed three times with 150 μl wash buffer (1×HBSS, 0.05% Tween). 150 μl 2× Read buffer was added to each well and plates were immediately measured with the MSD Sector S600 Reader using the vendor barcode.
For data evaluation and calculation, % control calculation of each well was based on the mean of high (DNA stimulated control) and mean of low (unstimulated control) controls by using the following formula: [counts(sample)−counts(low))/(counts(high)−counts(low))]*100
The IC50 values were calculated using the standard 4 parameter logistic regression formula. Calculation: [y=(a−d)/(1+(x/c)^b)+d], a=low value, d=high value; x=conc M; c=1C50 M; b=slope
Assay [2] relates to IFN induction in virus-stimulated THP1 cells. Briefly: Human cGAS cell assay, baculovirus-stimulated THP1-Dual cells, Lucia luciferase reporter (THP1(vir) IC50).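 For all read-outs here: IRF-dependent luminescence, 8 concentrations up to 10 µM in 1% DMSO, 0% = unstimulated cells, 100% = DMSO plus virus, counter assay stimulated with cGAMP downstream of cGAS.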 The format is cell-based. The conditions noted are these: for IC50: Homo sapiens, THP-1, baculovirus-stimulated THP1-Dual cells, 18 h; for Ratio THP(cGAMP) IC50/THP(vir) IC50: selectivity for cGAS inhibition. For orientation: A reporter such as luciferase makes a cellular process visible.
Description: THP1-Dual™ cells (InvivoGen #thpd-nfis) expressing IRF dependent Lucia luciferase reporter were used as basis for both assays. For the detection of cellular cGAS activity cells were stimulated by a baculovirus (pFastbac-1, Invitrogen, no coding insert) infection that delivers the cGAS enzyme stimulating double-stranded DNA (measurement of THP1(vir) IC50).
(§1) For the counter assay, cells were stimulated by cGAMP (SigmaAldrich #SML1232) to activate the identical pathway independent and directly downstream of cGAS (measurement of THP1(cAMP) IC50). Pathway activity was monitored by measuring the Lucia luciferase activity induced by either DNA stimulated cGAS enzyme activity (measurement of THP1^(vir) IC50) or by cGAMP directly (measurement of THP1(cAMP) IC50, counter assay).
Typically, 8 concentrations were used with the highest concentration at 10 μM in the final assay volume followed by ˜1:5 dilution steps. DMSO concentration was set to 1% in the final assay volume. The 384 well assay plate contained 21 test compounds (column 1-22), and DMSO in column 23 and 24.
The baculovirus solution was then added 1:200 (may have varied according to virus batch) to the cells (measurement of THP1(vir) IC50).
(§2) 30 μL of the cell/virus-mix were added to each well of the compound plate from column 1-23 via MultiDrop Combi dispenser (5000 cells/well). In column 24, 30 μl/5000 cells/well without virus were added as a low control.
(§3) The plates were then incubated for 18 h at 37° C. in a humidified incubator.
(§4) Following that, 15 μL of QuantiLuc detection reagent (InvivoGen #rep-qlcg5) were added to each well using a MultiDrop Combi. Measurement was done immediately after the addition using an EnVision reader (US-luminescence read-mode).
Data Evaluation and Calculation:
(§5) For data evaluation and calculation, the measurement of the low control was set as 0% control and the measurement of the high control was set as 100% control. The IC50 values were calculated using the standard 4 parameter logistic regression formula. Calculation: [y=(a−d)/(1+(x/c)^b)+d], a=low value, d=high value; x=conc M; c=1C50 M; b=slope

The target in assay [3] is Human cGAS (Homo sapiens (Human), UniProt Q8N884). Briefly: Human cGAS enzyme assay (hcGAS IC50, in vitro), cGAMP formation by RapidFire MS.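 Note: compounds preincubated 60 min, then GTP and ATP (30 µM each) added for 90 min at room temperature, cGAMP read relative to cyclic-di-GMP internal standard, no-enzyme/DNA wells as 0%.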 The format is biochemical. As to conditions: 45 bp dsDNA, GTP/ATP.
Assay [4] concerns IFN induction in cGAMP-stimulated THP1 cells. Briefly: cGAMP stimulated counter cell assay, THP1-Dual cells, Lucia luciferase reporter (THP1(cGAMP) IC50).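 Note: IRF-driven Lucia luciferase luminescence after 18 h at 37° C, compound series topping at 10 µM with 1% DMSO, unstimulated wells as 0% and DMSO wells as 100%.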 It is filed as cell-based. The conditions noted are these: Homo sapiens, THP-1, THP1-Dual cells stimulated with 10 μM cGAMP.
Description: 6.2 Method: Human cGAS Cell Assay and cGAMP Stimulated Counter Cell Assay (THP1(vir) IC50 and THP1(cGAMP) IC50)
THP1-Dual™ cells (InvivoGen #thpd-nfis) expressing IRF dependent Lucia luciferase reporter were used as basis for both assays.
as §1
Compounds were delivered in 10 mM DMSO solution, serially diluted and transferred to the 384 well assay plate (Greiner #781201) using an Echo acoustic dispenser. Typically, 8 concentrations were used with the highest concentration at 10 μM in the final assay volume followed by ˜1:5 dilution steps. DMSO concentration was set to 1% in the final assay volume. The 384 well assay plate contained 21 test compounds (column 1-22), and DMSO in column 23 and 24.
as §2, §3, §4
Data Evaluation and Calculation:
as §5

Human cGAS, sequence (Q8N884 whole entry): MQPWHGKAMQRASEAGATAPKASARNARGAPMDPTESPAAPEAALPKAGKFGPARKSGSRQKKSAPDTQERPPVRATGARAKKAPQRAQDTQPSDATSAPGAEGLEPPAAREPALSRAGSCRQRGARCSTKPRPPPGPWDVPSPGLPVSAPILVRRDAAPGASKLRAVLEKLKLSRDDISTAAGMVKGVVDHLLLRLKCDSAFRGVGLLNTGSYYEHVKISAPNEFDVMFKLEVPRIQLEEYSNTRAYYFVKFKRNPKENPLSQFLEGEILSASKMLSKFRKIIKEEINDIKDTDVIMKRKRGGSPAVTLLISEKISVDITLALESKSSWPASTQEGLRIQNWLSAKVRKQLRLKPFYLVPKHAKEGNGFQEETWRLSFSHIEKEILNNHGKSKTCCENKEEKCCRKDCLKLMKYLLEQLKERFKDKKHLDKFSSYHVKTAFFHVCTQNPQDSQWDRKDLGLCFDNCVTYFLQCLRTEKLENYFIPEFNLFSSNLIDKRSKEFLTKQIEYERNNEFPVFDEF

Regarding `C[C@H]1COCC[C@]1(F)c1cc(Br)cnc1O[C@H]1C[C@@H](C(=O)O)N(c2nc(C(F)F)nc3c2oc2ccccc23)C1` [Example 2.16], the IC50 is 325 nM in assay [1], 125 nM in assay [2], 4 nM in assay [3] and above 16600 nM in assay [4]. Also, the “Ratio THP(cGAMP) IC50/THP(vir) IC50” value in assay [2] came out at 133.

In the case of `C#Cc1cnc(O[C@H]2C[C@@H](C(=O)O)N(c3nc(C(F)F)nc4c3oc3ccccc34)C2)c([C@]2(F)CCOC[C@@H]2C)c1` [Example 1.03], the IC50 in assay [1] is 137 nM; in assay [2], 283 nM; in assay [3], 2 nM; in assay [4], above 16600 nM. Also, in assay [2], the “Ratio THP(cGAMP) IC50/THP(vir) IC50” value is recorded as above 59.

As to `CC1(C)C[C@](F)(c2cc(Cl)cnc2O[C@H]2C[C@@H](C(=O)O)N(c3nc(C(F)(F)F)nc4c3oc3ccccc34)C2)CCS1(=O)=O` [Example 2.09], the IC50 in assay [1] stood at 90 nM; in assay [2] it was 168 nM; in assay [3] it was 11 nM; in assay [4] it was 5490 nM. For the same compound, the “Ratio THP(cGAMP) IC50/THP(vir) IC50” value in assay [2] is listed as 33.

In the case of `CNc1cc(-c2cnc(O[C@H]3C[C@@H](C(=O)O)N(c4nc(C(F)F)nc5c4oc4ccccc45)C3)c([C@@]3(F)CCOC[C@@H]3C)c2)ccn1` [Example 3.02], the half-maximal inhibitory concentration (IC50) is 53 nM in assay [1], 23 nM in assay [2], 2 nM in assay [3] and 4710 nM in assay [4]. Besides, the “Ratio THP(cGAMP) IC50/THP(vir) IC50” value in assay [2] came out at 201.

With `C[C@H]1COCC[C@]1(F)c1cc(-c2cccc(N(C)C)c2)cnc1O[C@H]1C[C@@H](C(=O)O)N(c2nc(C(F)F)nc3c2oc2ccccc23)C1` [Example 6.04], the IC50 was 75 nM in assay [1], 21 nM in assay [2], 17 nM in assay [3] and 7680 nM in assay [4]. Moreover, the “Ratio THP(cGAMP) IC50/THP(vir) IC50” value in assay [2] worked out at 371.

Consider `C[C@H]1CS(=O)(=O)CC[C@]1(F)c1cc(Cl)cnc1O[C@H]1C[C@@H](C(=O)O)N(c2nc(C(F)(F)F)nc3c2oc2ccccc23)C1` [Example 2.10], for which the IC50 was determined as 15 nM in assay [1], 4 nM in assay [2], 3 nM in assay [3] and 18800 nM in assay [4]. For the same compound, the “Ratio THP(cGAMP) IC50/THP(vir) IC50” value in assay [2] was found to be 4605.

In the case of `O=C(O)[C@@H]1C[C@H](Oc2ncc(Cl)cc2[C@]2(F)CCOC[C@@H]2C(F)(F)F)CN1c1nc(C(F)F)nc2c1oc1ccccc12` [Example 1.25], the concentration for half-maximal inhibition (IC50) in assay [1] stood at 502 nM; in assay [2], 712 nM; in assay [3], 10 nM; in assay [4], 13500 nM. In addition, in assay [2], the “Ratio THP(cGAMP) IC50/THP(vir) IC50” value turned out to be 19.

`O=C(O)[C@@H]1C[C@H](Oc2ncc(Cl)cc2[C@@]2(F)CCS(=O)(=O)C3(COC3)C2)CN1c1nc(C(F)F)nc2c1oc1ccccc12` [Example 1.19]: the IC50 in assay [1] amounted to 316 nM; in assay [2], 566 nM; in assay [3], 5 nM; in assay [4] it was 14000 nM. Besides, the “Ratio THP(cGAMP) IC50/THP(vir) IC50” value in assay [2] came to 25.

On to `C#Cc1cnc(O[C@H]2C[C@@H](C(=O)OC)N(c3nc(C(F)(F)F)nc4c3oc3ccccc34)C2)c([C@@]2(F)CCS(=O)(=O)C[C@@H]2C)c1` [Example P01], for which the concentration for half-maximal inhibition (IC50) is 67 nM in assay [1], 11 nM in assay [2], 19100 nM in assay [3] and above 16600 nM in assay [4].

For `C#Cc1cnc(O[C@H]2C[C@@H](C(=O)O)N(c3nc(C(F)(F)F)nc4c3oc3ccccc34)C2)c(C2(F)CCS(=O)(=O)CC2)c1` [Example 2.07], the concentration for half-maximal inhibition (IC50) is 97 nM in assay [1], 688 nM in assay [2], 2 nM in assay [3] and above 16600 nM in assay [4]. For the same compound, the “Ratio THP(cGAMP) IC50/THP(vir) IC50” value in assay [2] was above 24.

As to `COC(=O)[C@@H]1C[C@H](Oc2ncc(Cl)cc2[C@@]2(OC)CC(C)(C)S(=O)(=O)C[C@@H]2C)CN1c1nc(C(F)F)nc2c1oc1ccccc12` [Example P03], the 50% inhibitory concentration (IC50) in assay [1] was found to be 1990 nM; in assay [2] it was 202 nM; in assay [3], 7250 nM; in assay [4], 20600 nM.

In the case of `COC(=O)[C@@H]1C[C@H](Oc2ncc(Cl)cc2[C@@]2(F)CCS(=O)(=O)C[C@@H]2C)CN1c1nc(C(F)F)nc2c1oc1ccccc12` [Example P02], the IC50 in assay [1] was 140 nM; in assay [2], 29 nM; in assay [3], above 9950 nM; in assay [4], above 16600 nM.

For the compound `O=C(O)[C@@H]1C[C@H](Oc2ncc(Cl)cc2[C@@]2(F)CCN3C(=O)OC[C@H]3C2)CN1c1nc(C(F)F)nc2c1oc1ccccc12` [Example 2.13], the IC50 was 582 nM in assay [1], 818 nM in assay [2], 7 nM in assay [3] and above 16600 nM in assay [4]. Moreover, in assay [2], the “Ratio THP(cGAMP) IC50/THP(vir) IC50” value was above 20.

As for `C[C@H]1CN(C2COC2)CC[C@]1(F)c1cc(Cl)cnc1O[C@H]1C[C@@H](C(=O)O)N(c2nc(C(F)F)nc3c2oc2ccccc23)C1` [Example 1.23], the 50% inhibitory concentration (IC50) in assay [1] came out at 165 nM; in assay [2] it was 185 nM; in assay [3], 15 nM; in assay [4] it was 8400 nM. Moreover, the “Ratio THP(cGAMP) IC50/THP(vir) IC50” value in assay [2] is reported as 45.

Take `CC(=O)N1CC[C@](F)(c2cc(Cl)cnc2O[C@H]2C[C@@H](C(=O)O)N(c3nc(C(F)F)nc4c3oc3ccccc34)C2)[C@@H](C)C1` [Example 1.22]: the IC50 in assay [1] was 114 nM; in assay [2] it was 85 nM; in assay [3] it was 4 nM; in assay [4], 16100 nM. Besides, the “Ratio THP(cGAMP) IC50/THP(vir) IC50” value in assay [2] is 189.

For the compound `C[C@H]1COCC[C@]1(F)c1cc(-c2cnn(C(F)F)c2)cnc1O[C@H]1C[C@@H](C(=O)O)N(c2nc(C(F)F)nc3c2oc2ccccc23)C1` [Example 6.01, (2S,4S)-4-({5-[1-(Difluoromethyl)-1H-pyrazol-4-yl]-3-[(3S,4R)-4-fluoro-3-methyloxan-4-yl]pyridin-2-yl}oxy)-1-[4-(difluoromethyl)-8-oxa-3,5-diazatricyclo[7.4.0.0^2,7]trideca-1(9),2(7),3,5,10,12-hexaen-6-yl]pyrrolidine-2-carboxylic acid], the half-maximal inhibitory concentration (IC50) in assay [1] is 82 nM; in assay [2] it was 35 nM; in assay [3], 5 nM; in assay [4] it was above 9990 nM. For the same compound, the “Ratio THP(cGAMP) IC50/THP(vir) IC50” value in assay [2] was above 289.

Take `COc1cc(-c2cnc(O[C@H]3C[C@@H](C(=O)O)N(c4nc(C(F)F)nc5c4oc4ccccc45)C3)c([C@@]3(F)CCN(C(C)=O)C[C@@H]3C)c2)c(F)cn1` [Example 3.03]: the half-maximal inhibitory concentration (IC50) worked out at 53 nM in assay [1], 18 nM in assay [2], 12 nM in assay [3] and 10400 nM in assay [4]. In assay [2], the “Ratio THP(cGAMP) IC50/THP(vir) IC50” value is recorded as 568.

Take `C[C@H]1CS(=O)(=O)C(C)(C)C[C@@]1(F)c1cc(Cl)cnc1O[C@H]1C[C@@H](C(=O)O)N(c2nc(C(F)(F)F)nc3c2oc2ccccc23)C1` [Example 1.07]: the 50% inhibitory concentration (IC50) in assay [1] was found to be 213 nM; in assay [2] it was 216 nM; in assay [3] it was 69 nM; in assay [4], 3680 nM. Further, the “Ratio THP(cGAMP) IC50/THP(vir) IC50” value in assay [2] is recorded as 17.

Consider `CC#Cc1cnc(O[C@H]2C[C@@H](C(=O)O)N(c3nc(C(F)(F)F)nc4c3oc3ccccc34)C2)c([C@@]2(F)CCN(C3COC3)C[C@@H]2C)c1` [Example 2.17], for which the 50% inhibitory concentration (IC50) in assay [1] was 287 nM; in assay [2], 382 nM; in assay [3], 96 nM; in assay [4] it was 3920 nM. Also, the “Ratio THP(cGAMP) IC50/THP(vir) IC50” value in assay [2] worked out at 10.

In the case of `CNc1cccc(-c2cnc(O[C@H]3C[C@@H](C(=O)O)N(c4nc(C(F)F)nc5c4oc4ccccc45)C3)c([C@@]3(F)CCOC[C@@H]3C)c2)c1` [Example 6.03], the IC50 stood at 38 nM in assay [1], 35 nM in assay [2], 10 nM in assay [3] and 9510 nM in assay [4]. The “Ratio THP(cGAMP) IC50/THP(vir) IC50” value in assay [2] came out at 276.

Take `C#Cc1cnc(O[C@H]2C[C@@H](C(=O)O)N(c3nc(C(F)(F)F)nc4c3oc3ccccc34)C2)c([C@]2(F)CCS(=O)(=O)C[C@H]2C)c1` [Example 2.15]: the 50% inhibitory concentration (IC50) worked out at 291 nM in assay [1], 207 nM in assay [2], 6 nM in assay [3] and 10300 nM in assay [4]. Also, the “Ratio THP(cGAMP) IC50/THP(vir) IC50” value in assay [2] was determined as 50.

With `O=C(O)[C@@H]1C[C@H](Oc2ncc(-n3cc(Cl)cn3)cc2C2(F)CCOCC2)CN1c1nc(C(F)F)nc2c1oc1ccccc12` [Example 5.01, (2S,4S)-4-{[5-(4-chloro-1H-pyrazol-1-yl)-3-(4-fluorooxan-4-yl)pyridin-2-yl]oxy}-1-[4-(difluoromethyl)-8-oxa-3,5-diazatricyclo[7.4.0.0^2,7]trideca-1(13),2,4,6,9,11-hexaen-6-yl]pyrrolidine-2-carboxylic acid], the IC50 is 2890 nM in assay [1], 1000 nM in assay [2], 12 nM in assay [3] and above 16600 nM in assay [4]. Moreover, in assay [2], the “Ratio THP(cGAMP) IC50/THP(vir) IC50” value is reported as above 17.

Turning to `O=C(O)[C@@H]1C[C@H](Oc2ncc(Cl)cc2[C@]2(F)CCS(=O)(=O)C3(CC3)C2)CN1c1nc(C(F)F)nc2c1oc1ccccc12` [Example 1.17], the concentration for half-maximal inhibition (IC50) in assay [1] worked out at 45 nM; in assay [2], 54 nM; in assay [3], 3 nM; in assay [4], 22100 nM. For the same compound, the “Ratio THP(cGAMP) IC50/THP(vir) IC50” value in assay [2] is 412.

In the case of `C#Cc1cnc(O[C@H]2C[C@@H](C(=O)O)N(c3nc(C(F)(F)F)nc4c3oc3ccccc34)C2)c([C@@]2(F)CCN(C(C)=O)C[C@@H]2C)c1` [Example 2.19], the IC50 in assay [1] came to 57 nM; in assay [2], 23 nM; in assay [3], 5 nM; in assay [4], 9960 nM. For the same compound, the “Ratio THP(cGAMP) IC50/THP(vir) IC50” value in assay [2] is 435.

In the case of `C[C@H]1CS(=O)(=O)CC[C@]1(F)c1cc(Cl)cnc1O[C@H]1C[C@@H](C(=O)O)N(c2nc(C(F)F)nc3c2oc2ccccc23)C1` [Example 1.13], the IC50 in assay [1] worked out at 6 nM; in assay [2], 6 nM; in assay [3] it was 2 nM; in assay [4], 22500 nM.
